Tests used:
[1] = tested on: HepG2 cells
[2] = target: GABA receptor GABAB(1b) (Homo sapiens, UniProt Q9UBS5); assay: CEREP GABAB(1b) (h) (antagonist radioligand); assay type: binding; conditions: read-out: Percentage of inhibition/potentiation from control
[3] = target: neurokinin receptor NK2 (Homo sapiens, UniProt P21452); assay: CEREP NK2 (h) (agonist radioligand); assay type: binding; conditions: read-out: Percentage of inhibition/potentiation from control
[4] = tested on: healthy rats; assay: Acute nociception and motor coordination in healthy animals; assay type: in vivo, rat; conditions: BT13 25 mg/kg s.c.
[5] = target: opioid receptor mu (MOP) (Homo sapiens, UniProt P35372); assay: CEREP Mu (MOP) (h) (agonist radioligand); assay type: binding; conditions: BT13 1 μM; Cat. No. 0118; average of duplicate; read-out: Percentage of inhibition/potentiation from control
[6] = target: T1, serotonin receptor 5-HT2C (Homo sapiens, UniProt P28335); assay: CEREP 5-HT2C (h) (antagonist radioligand); assay type: binding; conditions: BT13 1 μM, Cat. No. 0137, average of duplicate, read-out: Percentage of inhibition/potentiation from control
T1 construct: purchased CEREP (contract assay) 0137, 1003
T1 sequence (P28335 33-458): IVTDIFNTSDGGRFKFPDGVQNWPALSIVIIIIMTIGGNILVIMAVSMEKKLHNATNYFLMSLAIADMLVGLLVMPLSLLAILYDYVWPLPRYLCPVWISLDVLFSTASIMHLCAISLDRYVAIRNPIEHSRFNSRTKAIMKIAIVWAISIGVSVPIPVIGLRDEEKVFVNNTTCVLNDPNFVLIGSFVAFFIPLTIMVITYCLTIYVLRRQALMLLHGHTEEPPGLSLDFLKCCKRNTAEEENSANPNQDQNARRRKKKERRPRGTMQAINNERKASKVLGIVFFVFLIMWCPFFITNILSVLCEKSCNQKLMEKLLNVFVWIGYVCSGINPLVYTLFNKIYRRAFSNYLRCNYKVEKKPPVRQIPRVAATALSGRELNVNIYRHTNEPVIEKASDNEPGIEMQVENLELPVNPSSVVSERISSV

[7] = target: T2, serotonin receptor 5-HT1D (Rattus norvegicus, UniProt P28565); assay: CEREP 5-HT1D (agonist radioligand); assay type: binding; conditions: BT13 1 μM; Cat. No. 1974; average of duplicate; read-out: Percentage of inhibition/potentiation from control
T2 construct: purchased CEREP (contract assay) 1974

[8] = tested on: RET mRNA in DRGs; assay: qPCR of RET mRNA in DRGs of animals with SNL; assay type: in vivo, rat; conditions: SNL rats; BT13-treated vs vehicle-treated
[9] = target: dopamine receptor D1 (Homo sapiens, UniProt P21728); assay: CEREP D1 (h) (antagonist radioligand); assay type: binding; conditions: BT13 1 μM; Cat. No. 0044; average of duplicate; read-out: Percentage of inhibition/potentiation from control
[10] = tested on: COMT (catechol-O-methyl transferase); assay: CEREP COMT (catechol-O-methyl transferase); assay type: biochemical; conditions: BT13 1 μM; Cat. No. 0457; average of duplicate
[11] = Plasma stability, human plasma; assay type: in vitro ADME; conditions: read-out: Plasma stability (% remaining after 1 h)
[12] = target: histamine receptor H2 (Homo sapiens, UniProt P25021); assay: CEREP H2 (h) (antagonist radioligand); assay type: binding; conditions: BT13 1 μM; Cat. No. 1208; average of duplicate; read-out: Percentage of inhibition/potentiation from control
[13] = tested on: rats; assay: Tolerability: weight gain, toxic signs, pathological analysis of major organs; assay type: in vivo, rat
[14] = Metabolic stability in liver microsomes; assay type: in vitro ADME; conditions: 0.5 mg/ml rat liver microsomes; read-out: Microsomal stability (% remaining in 30 min)
[15] = target: neurokinin receptor NK1 (Homo sapiens, UniProt P25103); assay: CEREP NK1 (h) (agonist radioligand); assay type: binding; conditions: BT13 1 μM; Cat. No. 0100; average of duplicate; read-out: Percentage of inhibition/potentiation from control
[16] = target: cholecystokinin receptor CCK2 (CCKB) (Homo sapiens, UniProt P32239); assay: CEREP CCK2 (CCKB) (h) (agonist radioligand); assay type: binding; conditions: BT13 1 μM; Cat. No. 0041; average of duplicate; read-out: Percentage of inhibition/potentiation from control
[17] = tested on: adult rat lumbar DRG sensory neurons; assay: Neurite outgrowth from cultured DRG neurons; assay type: cell-based; conditions: NGF 10 ng/ml, BT13 100 ng/ml
Description: Cultured lumbar DRG (L3–L5) neurons were prepared using a published method (O'Mullane et al., [2013]). After plating onto poly-L-ornithine (5 μg/ml)/laminin (5 μg/ml) coated coverslips for 1 h, DRG neurons were cultured for 24–30 h in fresh Neurobasal A/B27. GFLs, BT13, NGF, and vehicle control were added at the start of this period for a 24–30 h treatment, except when preceded by pre-treatment (1 h) with inhibitors (50 μM LY294002; 2 μM SU6656, […]; Biomol Research Laboratories, Plymouth Meeting, PA, USA). DRG neurons were then fixed (4% paraformaldehyde) and processed for immunocytochemistry with 1:200 Mouse anti-β III tubulin/AlexaFluor 594 (Sigma-Aldrich Cat# T8660 RRID:AB_477590) and 1:5,000 rabbit anti-calcitonin gene-related peptide/AlexaFluor 488 (Sigma-Aldrich Cat# C8198 RRID:AB_259091) and DAPI for nuclear staining (0.5 μg/ml, Molecular Probes). Image analysis of multichannel 12 bit Zeiss .ZVI or .TIF files (captured with a Zeiss Imager.M1/MRm camera/Zen software; Carl Zeiss Australia, North Ryde, NSW, Australia) was then performed by a researcher blinded to the experimental condition. Neurite initiation was measured by a single parameter (proportion of neurons with neurites longer than the soma diameter). Neurite elongation was measured by batch processing (HCA-Vision software; CSIRO Mathematical and Information Sciences, North Ryde, NSW, Australia) to obtain four parameters—Root number: number of primary neurites; Maximum length: length of longest neurite; Branch points: number of neurite branch points; and Total length: sum of neurite lengths (Kalous and Keast, [2010]; Kalous et al., [2012]). The number of neurons of each immunocytochemical class counted on each coverslip (technical replicates) was 50 for neurite initiation and 20 for neurite elongation. A minimum of three cultures from different rats (biological replicates) were analyzed for each treatment group.

[18] = CGRP-positive neurons, vs control

opioid receptor mu (MOP), sequence (P35372 whole entry): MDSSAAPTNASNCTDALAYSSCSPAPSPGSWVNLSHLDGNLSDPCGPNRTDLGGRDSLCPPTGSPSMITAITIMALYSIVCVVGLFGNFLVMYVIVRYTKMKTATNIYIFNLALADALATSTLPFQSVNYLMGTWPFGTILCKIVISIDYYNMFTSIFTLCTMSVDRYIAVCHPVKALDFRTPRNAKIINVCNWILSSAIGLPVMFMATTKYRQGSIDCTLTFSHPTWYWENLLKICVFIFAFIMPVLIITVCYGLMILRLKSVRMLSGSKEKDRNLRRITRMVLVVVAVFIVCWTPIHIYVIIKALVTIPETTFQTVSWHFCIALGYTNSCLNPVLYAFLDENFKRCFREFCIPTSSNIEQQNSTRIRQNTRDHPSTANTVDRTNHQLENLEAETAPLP
neurokinin receptor NK2, sequence (P21452 whole entry): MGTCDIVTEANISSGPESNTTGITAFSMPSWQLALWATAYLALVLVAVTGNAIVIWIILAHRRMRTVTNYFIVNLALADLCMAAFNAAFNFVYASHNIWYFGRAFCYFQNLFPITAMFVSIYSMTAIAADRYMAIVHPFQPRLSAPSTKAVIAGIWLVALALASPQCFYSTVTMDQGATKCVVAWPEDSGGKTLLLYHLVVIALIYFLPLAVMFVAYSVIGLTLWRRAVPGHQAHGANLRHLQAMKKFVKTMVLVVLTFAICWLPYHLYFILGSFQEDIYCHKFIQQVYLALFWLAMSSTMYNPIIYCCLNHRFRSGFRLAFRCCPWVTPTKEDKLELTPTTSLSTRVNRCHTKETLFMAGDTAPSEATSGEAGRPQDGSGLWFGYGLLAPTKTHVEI
GABA receptor GABAB(1b), sequence (Q9UBS5 1-844 isoform Q9UBS5-2): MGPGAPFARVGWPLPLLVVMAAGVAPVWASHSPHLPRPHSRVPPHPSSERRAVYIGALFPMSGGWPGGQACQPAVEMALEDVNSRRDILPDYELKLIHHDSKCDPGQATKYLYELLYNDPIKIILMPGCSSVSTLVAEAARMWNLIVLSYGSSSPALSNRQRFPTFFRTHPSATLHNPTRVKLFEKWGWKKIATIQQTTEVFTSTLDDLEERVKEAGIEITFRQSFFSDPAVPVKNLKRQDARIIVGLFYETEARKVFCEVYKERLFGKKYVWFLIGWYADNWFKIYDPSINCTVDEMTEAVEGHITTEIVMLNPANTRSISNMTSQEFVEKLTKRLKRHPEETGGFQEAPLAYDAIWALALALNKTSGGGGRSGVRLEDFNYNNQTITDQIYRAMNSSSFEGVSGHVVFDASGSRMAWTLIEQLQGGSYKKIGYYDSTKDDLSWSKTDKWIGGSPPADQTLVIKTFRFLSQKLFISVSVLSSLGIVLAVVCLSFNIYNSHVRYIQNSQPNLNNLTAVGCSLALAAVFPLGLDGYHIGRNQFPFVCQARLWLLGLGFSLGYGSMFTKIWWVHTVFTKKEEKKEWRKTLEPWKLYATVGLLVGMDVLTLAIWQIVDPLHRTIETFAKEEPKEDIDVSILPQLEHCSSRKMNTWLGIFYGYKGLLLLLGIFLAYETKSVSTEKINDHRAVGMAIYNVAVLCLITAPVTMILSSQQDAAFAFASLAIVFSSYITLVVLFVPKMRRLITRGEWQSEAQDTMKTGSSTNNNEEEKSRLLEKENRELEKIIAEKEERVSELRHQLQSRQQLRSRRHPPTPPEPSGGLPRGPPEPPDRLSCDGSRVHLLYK
dopamine receptor D1, sequence (P21728 whole entry): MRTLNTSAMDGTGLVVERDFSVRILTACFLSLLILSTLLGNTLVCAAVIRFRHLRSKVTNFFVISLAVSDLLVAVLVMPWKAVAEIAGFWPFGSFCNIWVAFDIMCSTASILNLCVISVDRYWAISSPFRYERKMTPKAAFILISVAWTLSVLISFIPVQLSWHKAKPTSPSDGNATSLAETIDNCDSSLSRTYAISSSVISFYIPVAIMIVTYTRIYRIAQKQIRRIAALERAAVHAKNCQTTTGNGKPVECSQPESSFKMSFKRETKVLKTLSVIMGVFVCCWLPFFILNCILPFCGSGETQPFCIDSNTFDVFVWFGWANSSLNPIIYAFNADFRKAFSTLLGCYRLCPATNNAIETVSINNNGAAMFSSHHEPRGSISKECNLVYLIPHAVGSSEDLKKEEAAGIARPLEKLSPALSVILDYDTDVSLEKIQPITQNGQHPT
cholecystokinin receptor CCK2 (CCKB), sequence (P32239 whole entry): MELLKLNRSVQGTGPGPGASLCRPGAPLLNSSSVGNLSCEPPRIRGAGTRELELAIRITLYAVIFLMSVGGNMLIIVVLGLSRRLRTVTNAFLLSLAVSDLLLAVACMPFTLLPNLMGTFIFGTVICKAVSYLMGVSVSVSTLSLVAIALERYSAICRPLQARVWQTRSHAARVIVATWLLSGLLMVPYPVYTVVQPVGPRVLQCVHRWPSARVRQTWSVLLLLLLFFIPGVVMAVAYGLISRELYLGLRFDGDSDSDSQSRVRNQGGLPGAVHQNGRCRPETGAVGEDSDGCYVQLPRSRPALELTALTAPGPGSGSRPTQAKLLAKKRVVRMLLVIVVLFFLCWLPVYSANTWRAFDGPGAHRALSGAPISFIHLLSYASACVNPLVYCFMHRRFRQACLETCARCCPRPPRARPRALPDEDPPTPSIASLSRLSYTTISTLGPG
neurokinin receptor NK1, sequence (P25103 whole entry): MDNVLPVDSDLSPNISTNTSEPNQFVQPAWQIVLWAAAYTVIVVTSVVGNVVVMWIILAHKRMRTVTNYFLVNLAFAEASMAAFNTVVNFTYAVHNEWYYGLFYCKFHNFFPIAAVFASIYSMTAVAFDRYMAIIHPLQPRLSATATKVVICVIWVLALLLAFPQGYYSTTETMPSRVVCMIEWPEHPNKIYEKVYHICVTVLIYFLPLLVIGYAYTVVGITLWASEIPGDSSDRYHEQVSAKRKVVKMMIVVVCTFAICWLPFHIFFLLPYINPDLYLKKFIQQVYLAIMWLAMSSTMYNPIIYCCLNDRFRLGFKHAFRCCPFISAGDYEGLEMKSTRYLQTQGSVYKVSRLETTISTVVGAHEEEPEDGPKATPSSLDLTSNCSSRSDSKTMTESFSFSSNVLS
histamine receptor H2, sequence (P25021 whole entry): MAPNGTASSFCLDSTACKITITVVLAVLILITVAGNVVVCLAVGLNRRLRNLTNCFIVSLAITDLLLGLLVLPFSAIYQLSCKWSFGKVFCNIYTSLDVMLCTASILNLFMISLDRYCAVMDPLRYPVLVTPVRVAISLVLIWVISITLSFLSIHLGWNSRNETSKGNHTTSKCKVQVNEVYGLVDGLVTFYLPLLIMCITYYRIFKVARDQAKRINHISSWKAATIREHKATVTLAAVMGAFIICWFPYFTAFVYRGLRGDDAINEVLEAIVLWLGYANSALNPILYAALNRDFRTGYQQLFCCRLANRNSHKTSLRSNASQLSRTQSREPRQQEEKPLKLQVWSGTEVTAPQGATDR
T2 sequence (P28565 whole entry): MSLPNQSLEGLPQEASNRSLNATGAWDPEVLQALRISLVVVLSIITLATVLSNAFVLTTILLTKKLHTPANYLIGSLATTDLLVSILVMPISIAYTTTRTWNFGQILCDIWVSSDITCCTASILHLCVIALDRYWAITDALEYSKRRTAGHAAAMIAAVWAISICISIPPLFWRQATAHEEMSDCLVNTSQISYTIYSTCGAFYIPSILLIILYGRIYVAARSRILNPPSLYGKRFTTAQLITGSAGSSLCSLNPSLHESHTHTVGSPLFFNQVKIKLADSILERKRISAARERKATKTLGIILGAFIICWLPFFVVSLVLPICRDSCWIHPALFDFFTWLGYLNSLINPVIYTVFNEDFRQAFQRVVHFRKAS

CCN(CC)S(=O)(=O)c1ccc(OC)c(N2CCN(C(=O)c3ccc(F)cc3C(F)(F)F)CC2)c1 [BT13]
Cytotoxicity to human hepatoma cells (HepG2; LD50) [1]: 90.4 ± 8.5 µM | inhibition at 1 µM [2]: -2% | inhibition at 1 µM [3]: 5% | baseline sensitivity to mechanical stimuli (paw pressure test) [4]: no significant effect | baseline sensitivity to thermal stimuli (acetone test) [4]: no significant effect | baseline sensitivity to thermal stimuli (hot plate) [4]: no significant effect | baseline sensitivity to thermal stimuli (tail flick) [4]: no significant effect | motor performance (rotarod test) [4]: no significant effect | inhibition at 1 µM [5]: 1% | inhibition at 1 µM [6]: 11% | inhibition at 1 µM [7]: 1% | mRNA level of RET in DRGs [8]: no difference | inhibition at 1 µM [9]: -17% | Percentage of inhibition/potentiation from control [10]: −2% | remaining at 1 h [11]: 97 ± 0.1% | inhibition at 1 µM [12]: 9% | significant histopathological changes in major organs ([13]; after completion of behavioral experiments): not detected | acute toxic effects, signs of pain or discomfort ([13]; experimental animals treated with BT13): No acute toxic effects, signs of pain or obvious discomfort | tumor formation in the tissues of rats ([13]; rat, in vivo): no tumor formation | remaining at 0.5 h [14]: 2.8 ± 0.1% | inhibition at 1 µM [15]: -19% | inhibition at 1 µM [16]: 1% | neurite initiation or extension ([17]; CGRP-negative neurons, ARTN 30 ng/ml): no effect | neurite initiation ([17]; CGRP-positive neurons, ARTN 30 ng/ml, overnight): no effect | neurite elongation, branch points, mean difference [17, 18]: 22 ± 5 | neurite elongation, maximum length, mean difference [17, 18]: 91 ± 13 μm | neurite elongation, total length, mean difference [17, 18]: 797 ± 207 μm | proportion of DRG neurons that expressed CGRP in culture ([17]; ARTN 30 ng/ml): did not alter
